From PubChem BioAssay (NCI)
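A five-concentration, 48-hour dose response in 96-well plates underlies each endpoint, interpolated linearly between surrounding concentrations. At the GI50, growth is halved. TGI marks complete inhibition of growth.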

Experiments:
Assay in all cases: DTP human tumour cell line panel, 48 h
BT-549 breast = tested on: BT-549 breast
CAKI-1 renal = tested on: CAKI-1 renal
HOP-92 NSCLC = tested on: HOP-92 NSCLC
MCF7 breast = tested on: MCF7 breast
MDA-MB-231 breast = tested on: MDA-MB-231 breast
NCI-H460 lung = tested on: NCI-H460 lung
NCI-H522 lung = tested on: NCI-H522 lung
SF-295 CNS = tested on: SF-295 CNS
UACC-62 melanoma = tested on: UACC-62 melanoma
KM12 colon = tested on: KM12 colon

SMILES	GI50 (BT-549 breast) [µM]	TGI (BT-549 breast) [µM]	GI50 (CAKI-1 renal) [µM]	TGI (CAKI-1 renal) [µM]	GI50 (HOP-92 NSCLC) [µM]	TGI (HOP-92 NSCLC) [µM]	GI50 (MCF7 breast) [µM]	TGI (MCF7 breast) [µM]	GI50 (MDA-MB-231 breast) [µM]	TGI (MDA-MB-231 breast) [µM]	GI50 (NCI-H460 lung) [µM]	TGI (NCI-H460 lung) [µM]	GI50 (NCI-H522 lung) [µM]	TGI (NCI-H522 lung) [µM]	GI50 (SF-295 CNS) [µM]	TGI (SF-295 CNS) [µM]	GI50 (UACC-62 melanoma) [µM]	TGI (UACC-62 melanoma) [µM]	GI50 (KM12 colon) [µM]	TGI (KM12 colon) [µM]
C/C(=C1\C(=O)Nc2ccccc21)c1cccc(/C(C)=C2/C(=O)Nc3ccccc32)n1	5.43	36.5	2.34	24.3	15.7	85.3	3.74	> 100	11.5	74.7	5.08	> 100	9.59	99.5	18.5	85.4	4.56	23.2	–	–
Oc1ccc(CCNc2nc3ccccc3c3[nH]c4ccccc4c23)cc1O	9.27	21.3	11	22.9	1.31	2.95	3.13	–	2.98	11.8	2.17	5.54	–	–	5.51	> 100	3.86	13.4	1.59	4.19
COc1ccc(CC(C)NCC(O)c2ccc(O)c(NC=O)c2)cc1 (stereo unspecified)	–	> 100	–	> 100	–	–	–	> 100	–	> 100	–	> 100	–	> 100	–	> 100	–	> 100	–	> 100
O=C(O)C1CCCN1 (stereo unspecified)	–	> 100	–	–	–	> 100	–	> 100	–	> 100	–	> 100	–	> 100	–	> 100	–	> 100	–	> 100
O=c1cc(-c2cccc(Cl)c2)[nH]c2cc3c(cc12)OCO3	–	17.1	–	–	–	21.8	–	> 100	–	11.5	–	> 100	–	2.8	–	–	–	0.556	–	28.1
O=C(O)CN(CCN(CC(=O)O)CC(=O)O)CCN(CC(=O)O)CC(=O)O	2.77	9.45	3.58	20.2	11.5	79	3.75	22.1	10.5	87.6	2.49	7.09	–	–	3.25	21.3	3.35	15.9	4.94	37.6
Clc1ccc2c(NCCCCNc3nc(N4CCOCC4)nc4ccccc34)ccnc2c1	2.96	9.42	–	–	1.88	4.29	3.81	17.7	2.1	4.5	2.22	5.22	2.34	5.6	1.79	3.73	1.92	3.48	3.52	12.4
CCCCCCCCCCCC(c1ccccc1)[N+](C)(C)C (stereo unspecified)	1.31	2.95	9.98	26	1.06	2.86	1.44	3.19	1.68	4.25	1.28	3.2	0.294	1.97	2.32	8.9	–	–	0.511	1.78
CC(C)CC(NC(=O)C(O)C(N)Cc1ccccc1)C(=O)O (stereo unspecified)	–	–	–	> 100	–	> 100	–	> 100	–	> 100	–	> 100	–	–	–	> 100	–	> 100	–	> 100
COCCn1c(Nc2ccc(C(=O)NO)cc2)nc2ccccc21	15.2	67.9	1.37	6.24	–	–	5.45	> 100	4.65	44.7	4.06	30.4	2.28	13.6	2.93	16.3	2.06	10.5	3.65	15.1
C=CCn1c(SCC(=O)Nc2ccc(C(=O)/C=C/c3cc(OC)c(OC)c(OC)c3)cc2)nnc1-c1cc(OC)c(OC)c(OC)c1	2.14	6.25	–	–	12.5	56.6	1.83	10.5	3.81	> 100	3.76	14.5	6.89	27.2	5.25	> 100	3.31	17.5	2.82	8.18
CC1=NC2(C(=O)O)C3(C(=O)O)N=C(C)OC3(C(F)(F)F)C2(C(F)(F)F)O1 (stereo unspecified)	–	–	–	> 100	–	> 100	–	–	–	–	–	> 100	–	> 100	–	> 100	–	> 100	–	> 100
